Measured values taken from patent US6093838A, “Amines substituted with a dihydro-benzofuranyl or with a dihydro-isobenzofuranyl group, an aryl or heteroaryl group and an alkyl group, having retinoid-like biological activity” (Allergan Sales, Inc., priority 1999, dated 2000).

Legend:
RARα = target: T1, RARα (Homo sapiens, UniProt P10276); experiment: ligand binding assay, RARα; conditions: read-out: RAR Bind. Ki α
T1 sequence (P10276 1-462): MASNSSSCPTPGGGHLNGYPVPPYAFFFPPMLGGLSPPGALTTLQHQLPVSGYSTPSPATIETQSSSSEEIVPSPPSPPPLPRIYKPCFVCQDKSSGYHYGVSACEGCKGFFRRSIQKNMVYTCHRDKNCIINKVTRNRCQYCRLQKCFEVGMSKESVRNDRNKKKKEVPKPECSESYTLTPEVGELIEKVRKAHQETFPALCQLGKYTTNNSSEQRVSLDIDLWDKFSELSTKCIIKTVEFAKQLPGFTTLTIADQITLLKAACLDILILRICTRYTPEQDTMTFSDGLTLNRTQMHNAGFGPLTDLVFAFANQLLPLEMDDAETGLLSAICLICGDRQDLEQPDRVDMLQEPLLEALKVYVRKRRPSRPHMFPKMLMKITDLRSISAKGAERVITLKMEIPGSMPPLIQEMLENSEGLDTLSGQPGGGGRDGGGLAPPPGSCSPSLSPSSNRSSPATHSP
From the text: (§1) Other assays described below, measure the ability of the compounds of the present invention to bind to, and/or activate various retinoid receptor subtypes. When in these assays a compound binds to a given receptor subtype and activates the transcription of a reporter gene through that subtype, then the compound is considered an agonist of that receptor subtype. […] In the below described assays the ability of the compounds to bind to RARα, RARβ, RARγ, RXRα, RXRβ and RXRγ receptors, and the ability or inability of the compounds to activate transcription of a reporter gene through these receptor subtypes can be tested. […] However, some of the compounds of the invention may behave as retinoid antagonists or partial antagonists and/or as inverse agonists. Because of the complex distribution of the different retinoid receptors in various organs of the mammalian body partial agonists and partial antagonists and compounds which have the characteristics of both may lend themselves to particularly useful therapeutic applications and may avoid serious side effects of conventional retinoid drugs.
(§2) A holoreceptor transactivation assay and a ligand binding assay which measure the antagonist/agonist like activity of the compounds of the invention, or their ability to bind to the several retinoid receptor subtypes, respectively, are described in published PCT Application No. WO WO93/11755 (particularly on pages 30-33 and 37-41) published on Jun. 24, 1993, the specification of which is also incorporated herein by reference. A detailed experimental procedure for holoreceptor transactivations has been described by Heyman et al. Cell 68, 397-406, (1992); Allegretto et al. J. Biol. Chem. 268, 26625-26633, and Mangelsdorf et al. The Retinoids: Biology, Chemistry and Medicine, pp 319-349, Raven Press Ltd., New York, which are expressly incorporated herein by reference. The results obtained in this assay are expressed in EC50 numbers, as they are also in the chimeric receptor transactivation assay. The results of ligand binding assay are expressed in Kd numbers. (See Cheng et al. Biochemical Pharmacology Vol. 22 pp 3099-3108, expressly incorporated herein by reference.)
(§3) Table 1 discloses the activity of certain exemplary compounds of the invention in the above-described chimeric receptor transactivation assay, holoreceptor transactivation assay and a ligand binding assays. Particularly, the transactivation data pertaining to RAR receptors were obtained in the chimeric assay, and the data pertaining to transactivation of RXR receptors were obtained in the holoreceptor transactivation assay.

RARβ = target: T2, RARβ (Homo sapiens, UniProt P10826); experiment: ligand binding assay, RARβ; conditions: read-out: RAR Bind. Ki β
T2 sequence (P10826 1-448 isoform P10826-2): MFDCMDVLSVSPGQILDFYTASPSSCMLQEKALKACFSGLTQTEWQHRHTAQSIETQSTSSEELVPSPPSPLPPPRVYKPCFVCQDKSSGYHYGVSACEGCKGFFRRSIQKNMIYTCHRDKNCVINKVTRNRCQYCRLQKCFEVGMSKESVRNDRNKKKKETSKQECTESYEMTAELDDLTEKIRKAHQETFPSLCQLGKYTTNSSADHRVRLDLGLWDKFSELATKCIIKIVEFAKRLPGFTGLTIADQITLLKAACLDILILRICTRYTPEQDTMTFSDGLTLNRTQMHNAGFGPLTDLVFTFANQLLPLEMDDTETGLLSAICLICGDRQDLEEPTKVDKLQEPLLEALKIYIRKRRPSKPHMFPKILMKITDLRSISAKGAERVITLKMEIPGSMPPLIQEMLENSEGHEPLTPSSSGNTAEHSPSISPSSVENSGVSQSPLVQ
From the text: as §1, §2, §3

RARγ = target: T3, RARγ (Homo sapiens, UniProt P13631); experiment: ligand binding assay, RARγ; conditions: read-out: RAR Bind. Ki γ
T3 sequence (P13631 1-454): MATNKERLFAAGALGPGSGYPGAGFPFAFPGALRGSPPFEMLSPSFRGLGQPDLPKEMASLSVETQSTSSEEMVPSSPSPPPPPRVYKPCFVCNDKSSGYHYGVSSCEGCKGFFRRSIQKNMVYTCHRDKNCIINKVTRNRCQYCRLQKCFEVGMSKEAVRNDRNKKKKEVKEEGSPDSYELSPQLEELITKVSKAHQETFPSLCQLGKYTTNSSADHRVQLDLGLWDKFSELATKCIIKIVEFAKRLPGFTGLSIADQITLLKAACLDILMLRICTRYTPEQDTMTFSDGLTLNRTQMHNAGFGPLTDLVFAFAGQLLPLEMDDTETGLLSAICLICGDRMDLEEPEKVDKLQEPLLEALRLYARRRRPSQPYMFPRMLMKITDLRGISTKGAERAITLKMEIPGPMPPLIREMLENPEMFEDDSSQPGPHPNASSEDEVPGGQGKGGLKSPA
From the text: as §1, §2, §3

RXRα [1] = target: T4, RXRα (Homo sapiens, UniProt P19793); experiment: ligand binding assay, RXRα; conditions: read-out: RXR Bind Ki α
T4 construct: expressed in transfected cells
T4 sequence (P19793 1-462): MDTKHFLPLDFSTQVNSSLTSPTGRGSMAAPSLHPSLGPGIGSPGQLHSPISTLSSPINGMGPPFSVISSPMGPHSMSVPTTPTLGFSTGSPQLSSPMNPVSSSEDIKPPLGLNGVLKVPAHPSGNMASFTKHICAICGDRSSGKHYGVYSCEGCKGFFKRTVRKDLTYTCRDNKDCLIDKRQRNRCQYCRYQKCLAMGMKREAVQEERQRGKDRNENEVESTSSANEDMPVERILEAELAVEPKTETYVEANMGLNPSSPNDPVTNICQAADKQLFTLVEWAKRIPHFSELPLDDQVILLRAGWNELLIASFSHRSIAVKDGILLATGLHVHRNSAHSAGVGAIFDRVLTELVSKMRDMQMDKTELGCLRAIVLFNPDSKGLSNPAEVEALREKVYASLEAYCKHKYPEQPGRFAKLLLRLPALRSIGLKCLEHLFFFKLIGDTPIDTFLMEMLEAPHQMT
From the text: as §1, §2, §3

RXRβ [2] = experiment: ligand binding assay, RXRβ; conditions: read-out: RXR Bind Ki β
From the text: as §1, §2, §3

RXRγ [3] = experiment: ligand binding assay, RXRγ; conditions: read-out: RXR Bind Ki γ
From the text: as §1, §2, §3

RXRα [4] = target: T4, RXRα; experiment: holoreceptor transactivation assay, RXRα; format: cell-based; conditions: for EC50: holoreceptor transactivation, RXRα, read-out: RXR Trans. EC50 α; for Emax: relative to 10^-6 M cyclopropyl penta-2,4-dienoic acid reference (RXRs), read-out: % efficacy (RXRα transactivation)
From the text: as §1, §2, §3

RXRγ [5] = target: T5, RXRγ (Mus musculus, UniProt P28705); experiment: holoreceptor transactivation assay, RXRγ; format: cell-based; conditions: for EC50: holoreceptor transactivation, RXRγ, read-out: RXR Trans. EC50 γ; for Emax: relative to 10^-6 M cyclopropyl penta-2,4-dienoic acid reference (RXRs), read-out: % efficacy (RXRγ transactivation)
T5 construct: expressed in transfected cells
T5 sequence (P28705 1-463): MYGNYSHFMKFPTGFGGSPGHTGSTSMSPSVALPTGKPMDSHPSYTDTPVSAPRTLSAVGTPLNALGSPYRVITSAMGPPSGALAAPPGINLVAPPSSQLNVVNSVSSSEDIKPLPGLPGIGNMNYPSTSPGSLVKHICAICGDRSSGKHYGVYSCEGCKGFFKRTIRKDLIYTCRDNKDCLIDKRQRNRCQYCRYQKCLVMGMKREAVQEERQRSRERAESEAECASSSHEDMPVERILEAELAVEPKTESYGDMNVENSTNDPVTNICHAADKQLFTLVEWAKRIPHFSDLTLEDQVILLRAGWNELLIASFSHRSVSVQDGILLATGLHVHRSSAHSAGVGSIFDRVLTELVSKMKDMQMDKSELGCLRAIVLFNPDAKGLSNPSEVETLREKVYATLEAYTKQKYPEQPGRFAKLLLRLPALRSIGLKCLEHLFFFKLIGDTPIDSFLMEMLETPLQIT
From the text: as §1, §2, §3

RXRβ [6] = target: T6, RXRβ (Mus musculus, UniProt P28704); experiment: holoreceptor transactivation assay, RXRβ; format: cell-based
T6 construct: expressed in transfected cells
T6 sequence (P28704 1-520): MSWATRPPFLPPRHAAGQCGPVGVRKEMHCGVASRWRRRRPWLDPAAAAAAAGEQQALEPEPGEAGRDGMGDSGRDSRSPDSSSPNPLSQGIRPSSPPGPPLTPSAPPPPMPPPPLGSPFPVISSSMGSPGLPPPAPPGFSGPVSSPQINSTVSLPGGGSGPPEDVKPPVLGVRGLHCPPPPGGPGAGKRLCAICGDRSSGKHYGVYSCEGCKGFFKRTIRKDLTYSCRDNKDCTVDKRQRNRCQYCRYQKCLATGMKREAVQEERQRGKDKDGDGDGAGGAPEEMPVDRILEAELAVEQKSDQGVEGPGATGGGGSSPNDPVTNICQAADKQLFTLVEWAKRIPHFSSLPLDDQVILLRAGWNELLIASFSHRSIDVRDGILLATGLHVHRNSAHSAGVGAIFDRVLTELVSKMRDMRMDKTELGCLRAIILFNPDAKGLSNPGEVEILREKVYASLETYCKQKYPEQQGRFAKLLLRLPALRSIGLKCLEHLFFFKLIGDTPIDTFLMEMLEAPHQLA
From the text: as §1, §2, §3

Row | Ki (RARα) [µM] | Ki (RARβ) [µM] | Ki (RARγ) [µM] | Ki (RXRα [1]) [µM] | Ki (RXRβ [2]) [µM] | Ki (RXRγ [3]) [µM] | EC50 (RXRα [4]) [µM] | Emax (RXRα [4]) [%] | EC50 (RXRγ [5]) [µM] | Emax (RXRγ [5]) [%] | EC50 (RXRβ [6]; holoreceptor transactivation, RXRβ, read-out: RXR Trans. EC50 β) [µM] | Emax (RXRβ [6]; relative to 10^-6 M cyclopropyl penta-2,4-dienoic acid reference (RXRs), read-out: % efficacy (RXRβ transactivation)) [%] | SMILES
1 | > 30 | > 30 | 6.7 | 10 | > 100 | > 100 |  |  |  |  |  |  | Cc1cc(N(C)c2ccc(C(=O)O)cc2)cc2c1OCC2(C)C [Compound 26, 4-[Methyl-(3,3,7-trimethyl-2,3-dihydro-benzofuran-5-yl)-amino]-benzoic acid]
2 | 9.4 | > 10 | 4.5 | > 10 | > 10 | > 10 | > 1 | 25 | > 1 | 15 |  |  | CCc1cc(N(C)c2ccc(C(=O)O)cc2)cc2c1OCC2(C)C [Compound 28, 4-[Methyl-(7-ethyl-3,3-dimethyl-2,3-dihydro-benzofuran-5-yl)-amino]-benzoicacid]
3 | > 30 | > 30 | > 30 | 9.2 | > 100 | > 100 | 1 | 75 |  |  |  |  | Cc1cc(N(c2ccc(C(=O)O)cc2)C(C)C)cc2c1OCC2(C)C [Compound 41, 4-[Isopropyl-(3,3,7-trimethyl-2,3-dihydro-benzofuran-5-yl)-amino]-benzoic acid]
4 |  |  |  |  |  |  | 0.011 | 119 | 0.018 | 120 | 0.073 | 113 | CCN(c1ccc(C(=O)O)cc1)c1cc2c(c(C(C)C)c1C)OCC2(C)C [Compound 70, 4-[Ethyl-(7-isopropyl-3,3,6-trimethyl-2,3-dihydro-benzofuran-5-yl)-amino]-benzoic acid]
